Measurements from the supplement of paper PMC10307832.

Legend:
Assay in all cases: relative viability (nuclei count vs DMSO), 5 days (fraction); higher = more cells survive
[1] = compound: CC1=CC(=NN1)NC2=CC(=NC(=N2)/C=C/C3=CC=CC=C3)N4CCN(CC4)C + Cc1nc(NC(=O)N2CCC[C@H]2C(N)=O)sc1-c1ccnc(C(C)(C)C(F)(F)F)c1 [Alpelisib] (partner 2 µM)
How it was run: (§1)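 Relative viability equals treated-well nuclei counts divided by vehicle-well nuclei counts. Counts came from 4× images of lung cancer cell lines grown in 1536-well plates for 5 days after pin-tool dosing on the day after seeding. Dosing used one drug alone or a fixed anchor-drug dose plus five library-drug doses (not always all listed) in √10 steps, and values are medians of duplicate plates.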

[2] = compound: CC(C)C[C@H](NC(=O)[C@H](Cc1ccccc1)NC(=O)c1cnccn1)B(O)O [Bortezomib] + O=C(CCCCCCC(=O)Nc1ccccc1)NO [Vorinostat] (partner 1 µM)
How it was run: as §1

[3] = compound: CC(C)C[C@H](NC(=O)[C@H](Cc1ccccc1)NC(=O)c1cnccn1)B(O)O [Bortezomib] + NC(=O)Nc1cc(-c2cccc(F)c2)sc1C(=O)N[C@H]1CCCNC1 [AZD7762] (partner 0.2 µM)
How it was run: as §1

[4] = compound: CC(C)C[C@H](NC(=O)[C@H](Cc1ccccc1)NC(=O)c1cnccn1)B(O)O [Bortezomib] + C[C@]1(O)C[C@@H](c2nc(-c3ccc4ccc(-c5ccccc5)nc4c3)c3c(N)nccn32)C1 [Linsitinib] (partner 1 µM)
How it was run: as §1

Work on NCI-H650 yielded a relative viability ([1]; first compound 0.08 µM) of 1.12, a relative viability ([1]; first compound 0.253 µM) of 1.19 and a relative viability ([1]; first compound 0.8 µM) of 1.03. For the same cell line, the relative viability ([1]; first compound 2.53 µM) was 0.811, the relative viability ([1]; first compound 8 µM) was 0.171 and the relative viability ([2]; first compound 0.0002 µM) was 0.395. It also gave a relative viability ([2]; first compound 0.000632 µM) of 0.566, a relative viability ([2]; first compound 0.002 µM) of 0.452 and a relative viability ([2]; first compound 0.006325 µM) of 0.429. For the same cell line, the relative viability ([2]; first compound 0.02 µM) was 0.121, the relative viability ([3]; first compound 0.0002 µM) was 0.949 and the relative viability ([3]; first compound 0.000632 µM) was 1.08. The relative viability ([3]; first compound 0.002 µM) was 0.95, the relative viability ([3]; first compound 0.006325 µM) was 0.942 and the relative viability ([3]; first compound 0.02 µM) was 0.289. For the same cell line, the relative viability ([4]; first compound 0.000632 µM) was 0.806, the relative viability ([4]; first compound 0.002 µM) was 0.811 and the relative viability ([4]; first compound 0.006325 µM) was 0.338. For the same cell line, the relative viability ([4]; first compound 0.02 µM) was 0.234.
